The record followed here is PMC4516315 (Journal of Medicinal Chemistry, 2015).

This assay deals with T1, recombinant P. falciparum DHODH (Plasmodium falciparum, UniProt Q08210).
T1 sequence (Q08210 24-569): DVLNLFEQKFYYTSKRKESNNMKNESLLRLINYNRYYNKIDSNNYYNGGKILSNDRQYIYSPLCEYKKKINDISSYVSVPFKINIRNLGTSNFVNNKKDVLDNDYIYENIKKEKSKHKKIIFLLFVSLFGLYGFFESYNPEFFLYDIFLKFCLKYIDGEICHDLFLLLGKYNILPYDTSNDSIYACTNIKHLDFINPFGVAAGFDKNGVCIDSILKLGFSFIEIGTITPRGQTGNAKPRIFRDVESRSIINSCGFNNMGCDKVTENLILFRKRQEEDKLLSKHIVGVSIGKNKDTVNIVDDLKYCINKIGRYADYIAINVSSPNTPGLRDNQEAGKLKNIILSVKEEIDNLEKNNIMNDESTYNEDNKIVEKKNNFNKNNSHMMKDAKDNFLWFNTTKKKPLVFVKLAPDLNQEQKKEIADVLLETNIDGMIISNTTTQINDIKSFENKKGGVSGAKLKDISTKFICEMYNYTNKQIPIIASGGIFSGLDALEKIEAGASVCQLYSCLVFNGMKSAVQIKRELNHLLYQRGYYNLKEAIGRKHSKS
Description: P. falciparum DHODH enzymatic assay. The note with it: biochemical assay.

`Cc1ccc(-n2nc(OC(C)C)c(Oc3c(F)cccc3F)c2C)nn1` [22a, 3-(4-(2,6-Difluorophenoxy)-3-isopropoxy-5-methyl-1H-pyrazol-1-yl)-6-methylpyridazine]: the “inhibition of recombinant P. falciparum DHODH” value is “completely devoid of effect”. Next, `Cc1c(Oc2c(F)cccc2F)c(OC(C)C)nn1-c1ccc(C2CC2)nn1` [compound 10q, 3-Cyclopropyl-6-(4-(2,6-difluorophenoxy)-3-isopropoxy-5-methyl-1H-pyrazol-1-yl)pyridazine]: “completely devoid of effect”.
